Measured values taken from PMC8006714 (Chemical Communications (Cambridge, England), 2021).
“And” between values parts separate entries of the source, which are not always exact repeats. Identical values can stand only once. “Also recorded” adds a separate entry of the source. Like-named read-outs stand apart in the source and are kept apart here.

Key:
[1] = target: T1, SARS-CoV-2 M^pro (Severe acute respiratory syndrome coronavirus 2, UniProt P0DTD1); experiment: biochemical; format: biochemical; conditions: for inhibition at a fixed 20 μM inhibitor concentration: LOPAC and API library screens; for M^pro inhibition at single concentrations (in words): 20, 50 and 100 µM β-lactam, 30 min or 60 min preincubation (Fig. S17)
[2] = tested on: M^pro; design: method as in doi:10.1101/2020.05.28.120642; conditions: read-out: reported IC50; cited from earlier work
[3] = target: T1, SARS-CoV-2 M^pro; experiment: biochemical; format: biochemical
[4] = target: T1, SARS-CoV-2 M^pro; format: binding; conditions: for covalent modification of M^pro preincubated with N3 (active site selectivity): 1 μM M^pro preincubated with 3 μM N3, 20 μM inhibitor; for covalent modification of M^pro (protein observed SPE-MS): 20 μM inhibitor, 20 mM HEPES pH 7.5, 50 mM NaCl
[5] = 30 min preincubation, SPE-MS dose response
[6] = 60 min preincubation, SPE-MS dose response

SMILES: CC(=O)OC[C@H]1O[C@@H]([S-])[C@H](OC(C)=O)[C@@H](OC(C)=O)[C@@H]1OC(C)=O.CCP(CC)CC.[Au+] [Auranofin]
- % Mpro inhibition at 20 µM [1]: 100.0%
- inhibition at a fixed 20 μM inhibitor concentration [1]: ≥ 80%
- IC50 [2]: ~500 nM

SMILES: CC(=O)OCC1=C(C(=O)[O-])N2C(=O)[C@@H](NC(=O)CCC[C@@H](N)C(=O)[O-])[C@H]2SC1.[Zn+2] [Cephalosporin C zinc salt]
- % Mpro inhibition at 20 µM [1]: 92.3%
- M^pro inhibition (in words) [1]: inhibited
- Hill slope ([3]; 22 minutes preincubation, SPE-MS): 1.83

SMILES: CC1(C)[C@H](C(=O)OCc2ccccc2)N2C(=O)[C@@H](NC(=O)COc3ccccc3)[C@H]2S1(=O)=O [Compound 1, penicillin V sulfone C3 benzyl ester]
- M^pro inhibition at single concentrations (in words) [1]: moderate inhibition
- covalent modification of M^pro preincubated with N3 (active site selectivity) [4]: no reaction
- covalent modification of M^pro (protein observed SPE-MS) ([4]; 1 μM M^pro): A single molecule 1 covalently modifies M^pro; also recorded: Covalent modification was observed
- Hill slope [3, 5]: 1.4 ± 0.4
- Hill slope [3, 6]: 1.6 ± 0.2
- IC50 ([3]; IC50 (SPE-MS)): ~1500 nM and 1500 nM and 900 nM

SMILES: COC1(NC(=O)Cc2ccccc2)C(=O)N2C1[S+]([O-])C(C)(C)C2C(=O)OCc1ccc([N+](=O)[O-])cc1 (stereo not shown) [Compound 2, C6-methoxy penicillin G sulfoxide C3 p-nitrobenzyl ester]
- M^pro inhibition at single concentrations (in words) [1]: moderate inhibition
- covalent modification of M^pro preincubated with N3 (active site selectivity) [4]: Minor further modification
- covalent modification of M^pro (protein observed SPE-MS) ([4]; 1 μM M^pro): does not efficiently modify M^pro through covalent reaction
- extent of covalent modification of M^pro ([4]; 1 μM M^pro, 20 μM β-lactam): < 10%
- Hill slope [3, 5]: 2.2 ± 0.1
- Hill slope [3, 6]: 2.1 ± 0.1
- IC50 ([3]; IC50 (SPE-MS)): ~3500 nM and 3500 nM and 2100 nM

SMILES: Cc1cc(C(=O)N[C@@H](C)C(=O)N[C@H](C(=O)N[C@@H](CC(C)C)C(=O)N[C@H](/C=C/C(=O)OCc2ccccc2)C[C@@H]2CCNC2=O)C(C)C)no1 [Compound N3]
- covalent modification of M^pro preincubated with N3 (active site selectivity) [4]: one major binding event
- covalent modification of M^pro (protein observed SPE-MS) ([4]; 1 μM M^pro): modifies M^pro in a covalent manner; also recorded: more than one reaction with the Mpro monomer; also recorded: predominantly (but not exclusively) a single N3 adduct was observed
- IC50 ([3]; IC50 (SPE-MS)): 40 nM and 30 nM

SMILES: O=c1c2ccccc2[se]n1-c1ccccc1 [Ebselen]
- inhibition at 20 µM ([1]; read-out: % Mpro inhibition at 20 µM, library of FDA-approved small molecules, 20 µM compound, […] Mpro, 2.0 µM TSAVLQ/SGFRK-NH2): 99.1%
- covalent modification of M^pro (protein observed SPE-MS) ([4]; 1 μM M^pro): covalently reacts multiple times with Mpro
- covalent modification of M^pro (protein observed SPE-MS) ([4]; 1 μM M^pro, listed as ebselen): modifies M^pro in a covalent manner; also recorded: time dependent modification of multiple residues

SMILES: Oc1ccc2ccccc2c1SSc1c(O)ccc2ccccc12 [IPA-3, 1,1’-Disulfanediyldinaphthalen-2-ol]
- inhibition at a fixed 20 μM inhibitor concentration [1]: ≥ 80%
- inhibition at 20 µM ([1]; read-out: % Mpro inhibition at 20 µM): 99.1%
- covalent modification of M^pro preincubated with N3 (active site selectivity) [4]: multiple adducts observed with unmodified M^pro were diminished; also recorded: does not (at least substantially) covalently modify Mpro
- covalent modification of M^pro (protein observed SPE-MS) ([4]; 1 μM M^pro): reacts with Mpro at multiple positions
- IC50 ([3]; IC50 (SPE-MS)): ~100 nM and 70 nM

SMILES: O=C1C(SCCO)=C(SCCO)C(=O)c2ccccc21 [NSC 95397]
- % Mpro inhibition at 20 µM [1]: 99.0%
- covalent modification of M^pro preincubated with N3 (active site selectivity) [4]: does not selectively bind to the M pro active site
- covalent modification of M^pro (protein observed SPE-MS) ([4]; 1 μM M^pro): reacts with Mpro at multiple positions

SMILES: Cc1ccc(S(=O)(=O)N[C@@H](CCCCN)C(=O)CCl)cc1.Cl [TLCK, Nα-p-Toluenesulfonyl-L-lysine chloromethyl ketone hydrochloride]
- % Mpro inhibition at 20 µM [1]: 88.3%
- covalent modification of M^pro preincubated with N3 (active site selectivity) [4]: does not react with TLCK
- covalent modification of M^pro preincubated with N3 (active site selectivity) ([4]; listed as Nα-p-toluenesulfonyl-L-lysine chloromethyl ketone): substantial covalent modification was no longer observed
- covalent modification of M^pro (protein observed SPE-MS) ([4]; 1 μM M^pro): covalently reacts with M pro

SMILES: Cc1ccc(S(=O)(=O)N[C@@H](Cc2ccccc2)C(=O)CCl)cc1 [TPCK, N-p-Toluenesulfonyl-L-phenylalanine chloromethyl ketone]
- % Mpro inhibition at 20 µM [1]: 94.1%
- covalent modification of M^pro preincubated with N3 (active site selectivity) [4]: does not covalently modify M^pro in the presence of N3; also recorded: substantial covalent modification was no longer observed; also recorded: does not react with TPCK
- covalent modification of M^pro (protein observed SPE-MS) ([4]; 1 μM M^pro): modifies M^pro in a covalent manner; also recorded: covalently reacts with Mpro
- IC50 ([3]; pH 7.5, read-out: IC50 (SPE-MS)): ~800 nM and 830 nM

SMILES: [Cl-].[Cl-].[Zn+2] [ZnCl2]
- Hill slope [3]: 2.23 and 2.07
- IC50 ([3]; read-out: IC50): 340 nM and 370 nM
